Assays:
keratinocytes = assay: Taurine induced NAD+ stimulation in cultured keratinocytes; assay type: cell-based; settings: for NAD+ level: keratinocytes
Procedure: Cell studies were conducted in which the effects of taurine and niacinamide on the NAD+ production were assessed when keratinocytes were cultured with these raw materials. In all of the tested conditions supplemented with actives, the NAD+ of the cells were increased compared to the untreated control.
Taurine has been identified as an active of interest for skin care due to its potential benefits to boost cell energy. This report explores the effect of supplementing taurine with keratinocytes to understand its effect on increasing NAD+ level in the cells. […] In our in vitro study, we observed that vitamin C, vitamin E and ferulic acid imparts significant benefits to the cell cycle and cell division. When combined with anti-aging catalyst composition, the treatment not only enhances skin renewal and resurfacing benefits but also maintains the positive effects on cell cycle and cell division. This is evident in the more pronounced impact on pathways related to skin cornification and epidermis development compared to single type treatment.

[1] = system: UVB-induced wrinkle formation; settings: oral taurine supplementation; cited from earlier work
[2] = system: diabetic precataractous lens; settings: dietary taurine supplementation; cited from earlier work

SMILES | NAD+ level (keratinocytes; 0.2% niacinamide) | UVB-induced wrinkle formation [1] | NAD+ level (keratinocytes; 0.05% taurine) | NAD+ of the cells compared to the untreated control (keratinocytes; keratinocytes cultured with raw material) | MDA levels, GSSG/GSH, and NAD+/NADH [2]
NC(=O)c1cccnc1 [niacinamide, reference compound] | higher level of NAD+ compared to 0.05% niacinamide | – | – | – | –
NCCS(=O)(=O)O [taurine] | – | suppress | comparable NAD+ level as compared to 0.2% niacinamide | stimulatory effect in increasing the NAD+ level | ameliorates
